System: muscles (soleus muscle) of Tg23 mice
Experiment: Experimental Example 3: glucose (2-deoxy-D-glucose) intake of soleus muscles
Format: in vivo, mouse
Conditions: isolated soleus muscles of WT and Tg mice incubated in KRB buffer with vs without insulin, 10 minutes at 30° C.
Method: Mice were sacrificed, and extensor digitorum longus (EDL) muscles and soleus muscles were quickly removed and processed. Both ends of each of the muscles were tied with suture (silk 4-0), and mounted on an incubation apparatus. First, the muscles were preincubated for 20 minutes in 6 ml of Krebs-Ringer bicarbonate (KRB) buffer (117 mM NaCl, 4.7 mM KCl, 2.5 mM CaCl2, 1.2 mM KH2PO4, 1.2 mM MgSO4, 24.6 mM NaHCO3, pH 7.5) containing 2 mM pyruvate. Then, the muscles were incubated in KRB buffer in presence or absence of insulin.
Immediately after muscle incubation, the muscles were transferred to KRB buffer containing 1 mM 2-deoxy-D-[^3H]glucose (1.5 μCi/ml) and 7 mM D-[^14C]mannitol (0.3 μCi/ml) (PerkinElmer Life Sciences) at 30° C., and incubated again for 10 minutes. When using insulin, a buffer containing insulin was used for incubation in a similar manner.
Glucose transport was terminated by dipping the muscles in KRB buffer containing 80 μmol/L cytochalasin B at 4° C., and then the muscles were frozen in liquid nitrogen. The muscles were weighed, and digested by incubating in 250 μl of 1 M NaOH at 80° C. for 10 minutes. Digests were neutralized with 250 μl of 1 M HCl. […] Radioactivity in aliquots of the digested muscle was determined by liquid scintillation counting for dual labels, and extracellular and intracellular spaces were calculated. […]

insulin
amount of glucose intake of muscles in presence (+) of insulin: increased

From patent publication US20120172344A1, “INSULIN-PRODUCING CELL INDUCER, GLUCOSE INTAKE ENHANCER, AND THERAPEUTIC AGENT FOR DIABETES OR DIABETES COMPLICATIONS” (KYUSHU UNIVERSITY, NATIONAL UNIVERSITY CORPORATION, priority 2009, published 2012)
